According to patent publication US20250179047A1, “5-[7-(3,4-DIHYDRO-1H-ISOQUINOLINE-2-CARBONYL)-1,2,3,4 TETRAHYDROISOQUINOLIN-6-YL]-1H-PYRROLE-3-CARBOXAMIDE DERIVATIVES, PHARMACEUTICAL COMPOSITIONS CONTAINING THEM AND THEIR USES AS PRO-APOPTOTIC AGENTS” (LES LABORATOIRES SERVIER, priority 2022, published 2025):

Key:
BCL2 D111A = BCL2 D111A (Homo sapiens, UniProt P10415, D111A); experiment: TR-FRET competitive binding assay, BCL2 D111A; conditions: Ki determined from IC50, read-out: TR_FRET EKI_Bcl2 D111A
Protocol: (§1) The relative binding potency of each compound was determined in a competitive binding assay using time resolved-fluorescence resonance energy transfer (TR-FRET). The method utilised a fluorescein labelled peptide derived from PUMA (5Flu-Ahx-[…]-NH2 wherein Ahx means 6-hexanoic acid monomer and the amino acid sequence is referred to as SEQ ID:01) which binds to a terbium labelled BCL2 or BCLXL protein. The degree of binding or corresponding compound inhibition can be quantified by the TR-FRET signal between the terbium donor and fluorescein acceptor.
(§2) The human BCL2_wild-type (also named BCL2_wt), BCL2_G101V mutant and BCLXL_wild-type were E. coli expressed as a N-terminal Halo-fusion proteins and singly labelled with Terbium on the Halo protein to afford the following amino acid sequences:
(§3) wherein the BCL2(1-207) sequence corresponds to UniProtKB® primary accession number P10415 and the BCLXL(2-196) sequence corresponds to UniProtKB® primary accession number Q07817-1.
(§4) The assay was performed in a 40 μL volume in white 384-standard well plates (Corning #3574). An 11-point serial dilution of each compound was prepared in DMSO and transferred directly to plate followed by addition of fluorescein labelled peptide and lastly protein. Final assay conditions were 0.5 nM BCL2_wt, BCL2_G101V, BCL2_D103Y, BCL2_F104I, BCL2_D111A or BCLXL_wt, 2 or 20 nM fluorescein labelled peptide, 50 mM Hepes pH 7.5, 150 mM NaCl, 0.5 mM TCEP (Tris(2-carboxyethyl)phosphine), 0.05% Tween 20, 5% DMSO. The mixture was incubated for 2 hours at 23° C.
(§5) TR-FRET measurements were performed on a Biotek Synergy Neo plate reader. TR-FRET was measured by excitation of the Terbium-donor at 340 nm and subsequent (delay time 100 μs) measurement of terbium and fluorescein emission at 495 nm and 520 nm, respectively, over a collection time of 300 μs. The TR-FRET signal was calculated as the emission-ratio at 520 nm over 495 nm.
(§6) The TR-FRET ratio readout for test compounds was normalized against 0% inhibition controls wells and 100% inhibition control wells. Test compound potency (IC50) was estimated by nonlinear regression using the sigmoidal dose-response (variable slope) using Xlfit 4 (IDBS, Guildford, Surrey, UK, model 205). Were the IC50 could not be determined the % inhibition at the highest tested concentration is given.
(§7) y=(A+((B−A)/(1+((C/x)^D))))
(§8) where y is the normalized TR-TRET ratio measurement for a given concentration of test compound, x is the concentration of test compound, A is the estimated efficacy (% inhibition) at infinite compound dilution, and B is the maximal efficacy (% inhibition). C is the IC50 value and D is the Hill slope coefficient.
(§9) The K1 values were determined from the IC50 values according to Cer et al, Nucleic Acids Res, 2009, July 1; 37 (WebServer issue): W441-W445.

BCL2 WT = BCL2 WT (Homo sapiens (Human), UniProt P10415); experiment: TR-FRET competitive binding assay, BCL2 WT; conditions: Ki determined from IC50, read-out: TR_FRET EKI_Bcl2 WT
Procedure, shortened: (§10)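 Ki derived from IC50 (11-point dilution, 520/495 nm emission ratio) for displacing a fluorescein-labelled PUMA peptide (2 or 20 nM). Target was 0.5 nM E. coli-expressed Halo-tagged BCL2 (1-207) or BCLXL (2-196), terbium-labelled on Halo. Incubation 2 h at 23°C in pH 7.5 Hepes with 150 mM NaCl and 5% DMSO.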

KMS-12-PE Bcl-2 WT = experiment: In vitro cytotoxicity CellTiter-Glo 48 h, KMS-12-PE Bcl-2 WT; assay type: cell-based; conditions: Homo sapiens, KMS-12-PE, C50 = concentration needed to reach 50% of the cellular viability
Procedure, shortened: (§11)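 Bcl-2 WT- and G101V-expressing KMS-12-PE cells; 48 h treatment at 37 °C, 5% CO2; CellTiter-Glo ATP luminescence; C50 from 11-point curves.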

BCL2 F104I = BCL2 F104I (Homo sapiens, UniProt P10415, F104I); experiment: TR-FRET competitive binding assay, BCL2 F104I; conditions: Ki determined from IC50, read-out: TR_FRET EKI_Bcl2 F104I
Protocol: as §1, §2, §3, §4, §5, §6, §7, §8, §9

BCLXL WT = BCLXL WT (Homo sapiens (Human), UniProt Q07817); experiment: TR-FRET competitive binding assay, BCLXL WT; conditions: for Ki: BCLXL WT, Ki determined from IC50, read-out: TR_FRET EKI BclxL; for TR_FRET EKI BCLxL/WT selectivty ratio: ratio Ki BCLxL / Ki BCL2 WT
Procedure, shortened: as §10

BCL2 G101V [1] = target: BCL2 G101V (Homo sapiens, UniProt P10415, G101V); experiment: TR-FRET competitive binding assay, BCL2 G101V; conditions: BCL2 G101V; Ki determined from IC50; read-out: TR_FRET EKI_Bcl2 G101V
Procedure, shortened: as §10

BCL2 G101V [2] = experiment: TR-FRET competitive binding assay, BCL2 G101V; design: species or system human; conditions: ratio Ki BCL2 G101V / Ki BCL2 WT
Procedure, shortened: as §10

BCL2 D103Y = BCL2 D103Y (Homo sapiens, UniProt P10415, D103Y); experiment: TR-FRET competitive binding assay, BCL2 D103Y; conditions: Ki determined from IC50, read-out: TR_FRET EKI_Bcl2 D103Y
Procedure, shortened: as §10

KMS-12-PE Bcl-2 G101V = experiment: In vitro cytotoxicity CellTiter-Glo 48 h, KMS-12-PE Bcl-2 G101V; assay type: cell-based; conditions: for Ratio (G101V/WT): C50 KMS-12-PE Bcl-2 G101V over C50 KMS-12-PE Bcl-2 WT; for IC50: 48 h, CellTiter-Glo, C50 = concentration needed to reach 50% of the cellular viability
Procedure, shortened: as §11

BCLXL WT, sequence (Q07817 other isoform, or with tags, fused parts or gaps): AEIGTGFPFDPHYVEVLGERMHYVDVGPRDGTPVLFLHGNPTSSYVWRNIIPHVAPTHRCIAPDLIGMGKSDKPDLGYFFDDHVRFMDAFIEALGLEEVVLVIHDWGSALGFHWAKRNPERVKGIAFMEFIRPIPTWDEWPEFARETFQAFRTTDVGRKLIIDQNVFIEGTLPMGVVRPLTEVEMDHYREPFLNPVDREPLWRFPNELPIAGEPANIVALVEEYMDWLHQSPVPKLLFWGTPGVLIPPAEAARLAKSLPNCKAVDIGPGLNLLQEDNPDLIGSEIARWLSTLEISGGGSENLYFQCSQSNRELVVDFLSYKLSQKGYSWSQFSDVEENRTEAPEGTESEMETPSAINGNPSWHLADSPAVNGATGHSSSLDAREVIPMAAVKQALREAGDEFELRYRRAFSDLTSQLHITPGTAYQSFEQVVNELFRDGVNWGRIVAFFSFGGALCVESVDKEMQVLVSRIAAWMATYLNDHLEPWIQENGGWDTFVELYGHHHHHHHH

Ki (BCL2 D111A) [nM]	Ki (BCL2 WT) [nM]	Ki (BCL2 F104I) [nM]	Ki (BCLXL WT) [nM]	TR_FRET EKI BCLxL/WT selectivty ratio (BCLXL WT)	Ki (BCL2 G101V [1]) [nM]	TR_FRET EKI G101V/WT selectivty ratio (BCL2 G101V [2])	Ki (BCL2 D103Y) [nM]	Structure (SMILES)	IC50 (KMS-12-PE Bcl-2 WT) [µM]	Ratio (G101V/WT) (KMS-12-PE Bcl-2 G101V)	IC50 (KMS-12-PE Bcl-2 G101V; Homo sapiens, KMS-12-PE) [µM]	IC50 (KMS-12-PE Bcl-2 G101V) [µM]
0.25	0.07	0.6	4.7	66.2	0.4	4.9	0.24	Cc1c(N(C(=O)c2cc(-c3cc4c(cc3C(=O)N3Cc5ccccc5C[C@H]3CN3CCCCC3)CN(C(=O)Cc3ccc(OCCN5C[C@@H](C)O[C@@H](C)C5)cc3)CC4)n(C)c2C)c2ccc(O)cc2)cc(C#N)n1C [Example 98, N-(5-cyano-1,2-dimethylpyrrol-3-yl)-5-{2-[2-(4-{2-[cis-2,6-dimethylmorpholin-4-yl]ethoxy}phenyl)acetyl]-7-{[(3S)-3-(piperidin-1-ylmethyl)-3,4-dihydro-1H-isoquinolin-2-yl]carbonyl}-3,4-dihydro-1H-isoquinolin-6-yl}-N-(4-hydroxyphenyl)-1,2-dimethylpyrrole-3-carboxamide]	0.0087	4.6	0.0401	–
0.12	0.1	0.26	1.1	11.6	0.2	1.9	0.19	Cc1c(N(C(=O)c2cc(-c3cc4c(cc3C(=O)N3Cc5ccccc5C[C@H]3C)CN(C(=O)Cc3ccc(OCCN5CCC(O)CC5)cc3)CC4)n(C)c2C)c2ccc(O)cc2)cc(C#N)n1C [Example 30, N-(5-cyano-1,2-dimethyl-1H-pyrrol-3-yl)-N-(4-hydroxyphenyl)-5-[2-(2-{4-[2-(4-hydroxypiperidin-1-yl)ethoxy]phenyl}acetyl)-7-[(3R)-3-methyl-1,2,3,4-tetrahydroisoquinoline-2-carbonyl]-1,2,3,4-tetrahydroisoquinolin-6-yl]-1,2-dimethyl-1H-pyrrole-3-carboxamide]	0.0191	4.76	0.0909	–
0.09	0.05	0.21	1	19.2	0.2	3.5	0.14	Cc1c(N(C(=O)c2cc(-c3cc4c(cc3C(=O)N3Cc5ccccc5C[C@H]3C)CN(C(=O)Cc3ccc(OCCN(C)C5COC5)cc3)CC4)n(C)c2C)c2ccc(O)cc2)cc(C#N)n1C [Example 60, N-(5-cyano-1,2-dimethyl-1H-pyrrol-3-yl)-N-(4-hydroxyphenyl)-1,2-dimethyl-5-{2-[2-(4-{2-[methyl(oxetan-3-yl)amino]ethoxy}phenyl)acetyl]-7-[(3R)-3-methyl-1,2,3,4-tetrahydroisoquinoline-2-carbonyl]-1,2,3,4-tetrahydroisoquinolin-6-yl}-1H-pyrrole-3-carboxamide]	0.0075	4.91	0.0367	–
0.07	0.03	0.14	1.1	39.3	0.2	5.4	0.11	Cc1c(N(C(=O)c2cc(-c3cc4c(cc3C(=O)N3Cc5ccccc5C[C@H]3CN3CC5(CC5)C3)CN(C(=O)Cc3ccc(OCCN5CCOCC5)cc3F)CC4)n(C)c2C)c2ccc(O)cc2)cc(C#N)n1C [Example 145, 5-{7-[(3S)-3-({5-azaspiro[2.3]hexan-5-yl}methyl)-1,2,3,4-tetrahydroisoquinoline-2-carbonyl]-2-(2-{2-fluoro-4-[2-(morpholin-4-yl)ethoxy]phenyl}acetyl)-1,2,3,4-tetrahydroisoquinolin-6-yl}-N-(5-cyano-1,2-dimethyl-1H-pyrrol-3-yl)-N-(4-hydroxyphenyl)-1,2-dimethyl-1H-pyrrole-3-carboxamide]	0.0295	5.2203	0.154	–
0.15	0.04	0.27	3.5	81.4	0.3	7.2	0.12	Cc1c(N(C(=O)c2cc(-c3cc4c(cc3C(=O)N3Cc5ccccc5C[C@H]3CN3CCC(C)(C)C3)CN(C(=O)Cc3ccc(OCCN5CCOCC5)cc3F)CC4)n(C)c2C)c2ccc(O)cc2)cc(C#N)n1C [Example 146, N-(5-cyano-1,2-dimethylpyrrol-3-yl)-5-(7-{[(3S)-3-[(3,3-dimethylpyrrolidin-1-yl)methyl]-3,4-dihydro-1H-isoquinolin-2-yl]carbonyl}-2-(2-{2-fluoro-4-[2-(morpholin-4-yl)ethoxy]phenyl}acetyl)-3,4-dihydro-1H-isoquinolin-6-yl)-N-(4-hydroxyphenyl)-1,2-dimethylpyrrole-3-carboxamide]	0.006	5.8167	0.0349	–
0.13	0.05	0.26	3.6	76.6	0.2	4.3	0.16	Cc1c(N(C(=O)c2cc(-c3cc4c(cc3C(=O)N3Cc5ccccc5C[C@H]3CN3CCCCC3)CN(C(=O)Cc3ccc(OCC(C)N5CCOCC5)cc3)CC4)n(C)c2C)c2ccc(O)cc2)cc(C#N)n1C (single isomer, unassigned) [Example 127, N-(5-cyano-1,2-dimethyl-1H-pyrrol-3-yl)-N-(4-hydroxyphenyl)-1,2-dimethyl-5-[2-(2-{4-[(2S or R)-2-(morpholin-4-yl)propoxy]phenyl}acetyl)-7-[(3S)-3-[(piperidin-1-yl)methyl]-1,2,3,4-tetrahydroisoquinoline-2-carbonyl]-1,2,3,4-tetrahydroisoquinolin-6-yl]-1H-pyrrole-3-carboxamide]	0.0077	3.58	–	0.0277
